Holding throughout (assay): growth of human tumour cells (NCI), 48 h
Test [1] relates to BT-549 breast.
Test [2] deals with CAKI-1 renal.
The test system of test [3] is HCT-116 colon.
Test [4] concerns K-562 leukemia.
Test [5] concerns NCI-H23 lung.
The subject of test [6] is OVCAR-3 ovarian.
The subject of test [7] is OVCAR-8 ovarian.
For test [8], the system named is SK-MEL-28 melanoma.
Test [9] deals with SR leukemia.
For test [10], the system named is U251 CNS.

The structures appear in SMILES notation.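 Briefly, cells in 96-well plates were exposed to five compound concentrations for 48 h, and endpoints were estimated by linear interpolation. The concentration for full growth arrest is given as TGI.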 Where only a bound is given, the exact number is not on record here.

With `COC1=C2C[C@](OC)(C#CC=CC#CC2O)CC1(C)C` (stereo not given in full), the TGI in test [1], in test [2], in test [3], in test [4], in test [5] and in test [6] was above 100 µM each time. Further, the TGI in test [7], in test [8], in test [9] and in [10] was above 100 µM in each case.
On to `Cc1c(OCc2cccc3ccccc23)ccc2c(=O)cc(S)oc12`, for which the TGI was above 100 µM in test [1]; above 100 µM in [2]; 77.5 µM in [3]; above 100 µM in [4]; 80.7 µM in test [5]; 53.6 µM in test [6]. Moreover, the TGI in [7] is above 100 µM; in test [8] it was above 100 µM; in test [9] it was 62.1 µM; in test [10], above 100 µM.
Consider `CC1=NN(c2cccc(S(=O)(=O)O)c2)C2(C1)SCC(=O)N2c1nc2ccccc2s1` (stereo not given), for which the TGI in test [1], in test [2], in [3], in test [4], in [5] and in [6] was above 100 µM in each case. For the same compound, the TGI in [7], in test [8], in test [9] and in test [10] was above 100 µM each time.
In the case of `CCCCCC(=O)OC[n+]1ccc(-c2c(COC(=O)NC(C)C)c(COC(=O)NC(C)C)c3n2CCC3)cc1`, the TGI in [1], in [2], in test [3], in [4], in [5] and in [6] was above 100 µM each time. The TGI in test [7] is above 100 µM; in test [8] it was above 100 µM; in test [9], above 80.9 µM; in [10], above 100 µM.

The values are drawn from PubChem BioAssay (NCI).
